Results on two compounds are retold here after ChEMBL document CHEMBL1687760, “Secondary integrase resistance mutations found in HIV-1 minority quasispecies in integrase therapy-naive patients have little or no effect on susceptibility to integrase inhibitors” (Antimicrob Agents Chemother, 2010).

Some results are limits rather than exact numbers.

In assay [1] the test system is Human immunodeficiency virus 1. In words: Antiviral activity against Human immunodeficiency virus 1 3B infected in human MT4 cells assessed as inhibition of virus induced cytopathic effect. It counts as functional, organism-based.
Assay [2] concerns Human immunodeficiency virus 1. As to the kind of experiment: Antiviral activity against Human immunodeficiency virus 1 HXB2 assessed as inhibition of virus induced cytopathic effect relative to wild type HIV1. It counts as functional.
Assay [3] has as its system Human immunodeficiency virus 1. In words: Antiviral activity against Human immunodeficiency virus 1 clone 19 harboring integrase R20K, A23V, G70E, T124N, I141V, G193E, V201I, T206S, I220V mutant gene relative to wild type HIV1. It counts as functional.
Assay [4] relates to Human immunodeficiency virus 1. In words: Antiviral activity against Human immunodeficiency virus 1 clone 16 harboring integrase R20K, A23V, M50I, T124N, G193E, V201I, T206S, I220V, D279G mutant gene relative to wild type HIV1. It counts as functional.
The test system of assay [5] is Human immunodeficiency virus 1. As to the kind of experiment: Antiviral activity against Human immunodeficiency virus 1 3B harboring integrase E92Q mutant infected in human MT4 cells assessed as inhibition of virus induced cytopathic effect relative to wild type HIV1. In kind it is functional.
In assay [6] the test system is Human immunodeficiency virus 1. In words: Antiviral activity against Human immunodeficiency virus 1 3B harboring integrase T206S mutant infected in human MT4 cells assessed as inhibition of virus induced cytopathic effect relative to wild type HIV1. In kind it is functional.
Assay [7] has as its system Human immunodeficiency virus 1. As to the kind of experiment: Antiviral activity against Human immunodeficiency virus 1 3B harboring integrase L68V mutant infected in human MT4 cells assessed as inhibition of virus induced cytopathic effect relative to wild type HIV1. It counts as functional.
Assay [8] has as its system Human immunodeficiency virus 1. In words: Antiviral activity against Human immunodeficiency virus 1 clone 5 harboring integrase E11D, S17T, S39G, L45V, M50I, I72V, L74I, K111T, S119G, T125A relative to wild type HIV1. In kind it is functional.
Assay [9] has as its system Human immunodeficiency virus 1. As to the kind of experiment: Antiviral activity against Human immunodeficiency virus 1 3B harboring integrase V201I mutant infected in human MT4 cells assessed as inhibition of virus induced cytopathic effect relative to wild type HIV1. It counts as functional.
Assay [10] relates to Human immunodeficiency virus 1. As to the kind of experiment: Antiviral activity against Human immunodeficiency virus 1 clone 4 harboring integrase S17N, S57G, I84I, T124N, T125A, M154I, S195C mutant gene relative to wild type HIV1. In kind it is functional.
Assay [11] deals with Human immunodeficiency virus 1. As to the kind of experiment: Antiviral activity against Human immunodeficiency virus 1 clone 11 harboring integrase S17N, I84I, T124N, T125A, M154I, S195C mutant gene relative to wild type HIV1. In kind it is functional.
In assay [12] the test system is Human immunodeficiency virus 1. In words: Antiviral activity against Human immunodeficiency virus 1 3B harboring integrase S230N mutant infected in human MT4 cells assessed as inhibition of virus induced cytopathic effect relative to wild type HIV1. It counts as functional.
The test system of assay [13] is Human immunodeficiency virus 1. In words: Antiviral activity against Human immunodeficiency virus 1 clone 17 harboring integrase S17N, T124N, T125A, M154I, S195C mutant gene relative to wild type HIV1. In kind it is functional.
In assay [14] the test system is Human immunodeficiency virus 1. As to the kind of experiment: Antiviral activity against Human immunodeficiency virus 1 clone 18_13 harboring integrase G140S mutant and G140S, Q148H site-directed mutation relative to wild type HIV1. In kind it is functional.
Assay [15] has as its system Human immunodeficiency virus 1. As to the kind of experiment: Antiviral activity against Human immunodeficiency virus 1 clone 18_13 harboring integrase S17N, T124N, T125A, G140S, M154I, S195C infected in human MT4 cells assessed as inhibition of virus induced cytopathic effect relative to wild type HIV1. It counts as functional.
In assay [16] the test system is Human immunodeficiency virus 1. In words: Antiviral activity against Human immunodeficiency virus 1 3B harboring integrase S119G mutant infected in human MT4 cells assessed as inhibition of virus induced cytopathic effect relative to wild type HIV1. In kind it is functional.
Assay [17] concerns Human immunodeficiency virus 1. As to the kind of experiment: Antiviral activity against Human immunodeficiency virus 1 clone 50_2 harboring integrase R20K, A23V, E92G, T124N, I141V, G193E, V201I, T206S, I220V, D279G infected in human MT4 cells assessed as inhibition of virus induced cytopathic effect relative to wild type HIV1. It counts as functional.
The test system of assay [18] is Human immunodeficiency virus 1. As to the kind of experiment: Antiviral activity against Human immunodeficiency virus 1 clone 9 harboring integrase E11D, S17T, L45V, M50T, I72V, L74I, K111T, S119G, relative to wild type HIV1. In kind it is functional.
Assay [19] relates to Human immunodeficiency virus 1. In words: Antiviral activity against Human immunodeficiency virus 1 clone 8 harboring integrase E11D, S17T, L45V, M50T, S57G, L74I, K111T, S119G, T125A relative to wild type HIV1. In kind it is functional.
Assay [20] deals with Human immunodeficiency virus 1. As to the kind of experiment: Antiviral activity against Human immunodeficiency virus 1 clone 20 harboring integrase E11D, S17T, L45V, M50T, I72V, L74I, K111T, T125A, I217V relative to wild type HIV1. It counts as functional.
Assay [21] deals with Human immunodeficiency virus 1. In words: Antiviral activity against Human immunodeficiency virus 1 3B harboring integrase V151I mutant infected in human MT4 cells assessed as inhibition of virus induced cytopathic effect relative to wild type HIV1. It counts as functional.
For assay [22], the system named is Human immunodeficiency virus 1. As to the kind of experiment: Antiviral activity against Human immunodeficiency virus 1 3B harboring integrase L74I mutant infected in human MT4 cells assessed as inhibition of virus induced cytopathic effect relative to wild type HIV1. It counts as functional.
Assay [23] concerns Human immunodeficiency virus 1. As to the kind of experiment: Antiviral activity against Human immunodeficiency virus 1 3B harboring integrase E157Q mutant infected in human MT4 cells assessed as inhibition of virus induced cytopathic effect relative to wild type HIV1. It counts as functional.
The subject of assay [24] is Human immunodeficiency virus 1. In words: Antiviral activity against Human immunodeficiency virus 1 clone 13 harboring integrase E11D, S17T, L45V, M50T, I72V, L74I, K111T, S119G, T125A relative to wild type HIV1. It counts as functional.

With `COc1cc2c(cc1Cc1cccc(Cl)c1F)c(=O)c(C(=O)O)cn2[C@H](CO)C(C)C` [ELVITEGRAVIR], the EC50 in [1] stood at 11.6 nM. The “fold change (FC)” value was 1.2 in [2]; 1.1 in assay [3]; 0.7 in assay [4]; 20.8 in assay [5]; 1.1 in assay [6]; 1.1 in [7]. The “fold change (FC)” value in assay [8] was 0.3; in assay [9], 0.9; in assay [10], 1.4; in [11], 0.9; in assay [12], 0.8; in assay [13] it was 1. Also, the “fold change (FC)” value in [14] was above 633.7; in [15] it was 5.6; in [16] it was 1; in [17] it was 13; in assay [18], 1; in assay [19], 0.8. In addition, the figures for the “fold change (FC)” value in assay [20] and in assay [21] were 1 and 0.6, respectively.
In the case of `Cc1nnc(C(=O)NC(C)(C)c2nc(C(=O)NCc3ccc(F)cc3)c(O)c(=O)n2C)o1` [RALTEGRAVIR], in [1], the EC50 was determined as 6.1 nM. The “fold change (FC)” value in assay [2] turned out to be 1; in assay [3], 1.2; in assay [4] it was 0.8; in assay [5] it was 3.8; in assay [7], 0.4; in assay [22], 1.2. The “fold change (FC)” value in assay [8] is 0.7; in [23], 1.2; in [14], 768; in assay [15], 2.4; in assay [16], 1.1; in assay [24] it was 2. Besides, the “fold change (FC)” value stood at 1.8 in assay [17] and 1.5 in assay [20].
